Test results: patent publication US5008416A, “Organogermanium compound, process for the preparation of same as well as use thereof” (Sanwa Kagaku Kenkyusho Co., Ltd., priority 1989, dated 1991)
Like-named read-outs stand apart in the source and are kept apart here.

How the values were obtained:
tumor bearing mice = experiment: Influence on antibody production in tumor bearing mice (Pharmacological Experiment 1); format: in vivo, mouse (ICR male); conditions: for Number of PFC: 5 days, mean ± standard error, n = 7
Method: Influence of the organogermanium compound on antibody production ability is checked with use of tumor bearing mice, as experimental animals reduced in their immunity response.
Tumor bearing mice were prepared by implanting 2×10^6 cells of mouse tumor cell (Sarcoma 180) under a skin of each ICR male mouse (age of 6 weeks) to form a solid tumor.
The organogermanium compound (Production Example 4) dissolved in 4% bovine serum albumin solution was orally administered to the tumor bearing mice over 5 days after lapsed 9 days from the implantation of the tumor cells, by a dose of 0.1, 1.0 or 10.0 mg/kg/day.
After lapsed 14 days from the implantation, 2×10^8 cells of sheep red blood cells (SRBC) were injected in a tail vein of the mice for sensitization. After 4 days from the sensitization, spleen was removed and number of PFC in 10^6 spleen cells was measured, as an index of the antibody production in the tumor bearing mice.

[1] = tested on: interferon (IFN) production; format: in vivo, mouse (BALB/c male); conditions: for INF titer: lung supernatant, three days, mean ± standard error, n = 5
Lewis lung carcinoma = experiment: Anti-tumor effect, Lewis lung carcinoma (Pharmacological Experiment 6); format: in vivo, mouse (C57BL/6 male); conditions: for Inhibition (development of solid tumor) / Tumor weight: 5 days, 14th day; for Tumor weight: mean ± standard deviation, n = 10
Method: An anti-tumor effect of the organogermanium compound according to the invention is examined.
C57BL/6 male mice (n=10) as experimental animals were subcutaneously implanted with 1×10^5 cells of Lewis lung carcinoma to form a solid tumor. The organogermanium compound (Example 4) dissolved in 4% bovine serum albumin was orally administered at the dose of 0.1, 1.0 and 10.0 mg/kg once a day for 5 days on days 1 to 5 after the tumor implantation.
On 14th day from the implantation, formed solid tumor was removed and weighed. An antitumor effect represented the inhibitory percent of the compound on the development of solid tumor.

[2] = tested on: acute liver injury induced by galactosamine (serum transaminases); experiment: Action to acute liver injury induced by galactosamine (Pharmacological Experiment 10); format: in vivo, rat (Wister male); conditions: for s-GPT / s-GOT: 5 days, 48 hours, mean ± standard error, n = 10
Method: An action of the organogermanium compound of the invention to an acute liver injury to be induced by galactosamine, as an experimental model for liver injury is checked, through measurement of serum transaminases, as indexes.
To Wister male rats (n=10 for each group), galactosamine was administered into abdominal canal by a dose of 400 mg/kg at 2 times with an interval of 6 hours to induce a acute liver injury.
To the […] in each Test group, the compound according to the invention (Example 4) dissolved in 4% bovine serum albumin solution was orally administered by 0.1, 1.0 or 10.0 mg/kg/day over 5 days beginning from 3 days before the administration of galactosamine.
After having lapsed 48 hours from the first administration of galactosamine, a blood letting was carried out to measure GOT and GPT values in serum.

Substance: Sodium 2-oxygermylethanesulfonate polymer [Example 4]
- Number of PFC (tumor bearing mice; 0.1 mg/kg/day orally, (*) p < 0.05 vs tumor bearing): 745 ± 66 PFC in 10^6 spleen cells
- Number of PFC (tumor bearing mice; 1.0 mg/kg/day orally): 948 ± 195 PFC in 10^6 spleen cells
- Number of PFC (tumor bearing mice; 10.0 mg/kg/day orally, (***) p < 0.001 vs tumor bearing): 1071 ± 89 PFC in 10^6 spleen cells
- Antibody production (result in words) (tumor bearing mice; 0.1-10.0 mg/kg/day orally, depending on dosing amount): the reduced antibody production due to generation of the tumor increased to a normal level
- INF titer ([1]; 0.1 mg/kg orally): 49.3 ± 5.3 IU/mg protein
- IFN activity, times higher than the control group ([1]; 1.0 mg/kg orally): about 2.5 times
- INF titer ([1]; 1.0 mg/kg orally, (**) p < 0.01 vs control): 138.3 ± 17.1 IU/mg protein
- IFN activity, times higher than the control group ([1]; 10.0 mg/kg orally): ~2.8 times
- INF titer ([1]; 10.0 mg/kg orally, (**) p < 0.01 vs control): 156.7 ± 28.3 IU/mg protein
- Inhibition (development of solid tumor) (Lewis lung carcinoma; 0.1 mg/kg orally once a day): 6.8%
- Tumor weight (Lewis lung carcinoma; 0.1 mg/kg orally once a day): 1.77 ± 0.47 g
- Inhibition (development of solid tumor) (Lewis lung carcinoma; 1.0 mg/kg orally once a day): 46.3%
- Tumor weight (Lewis lung carcinoma; 1.0 mg/kg orally once a day, (*) p < 0.05 vs Control): 1.02 ± 0.16 g
- Inhibition (development of solid tumor) (Lewis lung carcinoma; 10.0 mg/kg orally once a day): 28.4%
- Tumor weight (Lewis lung carcinoma; 10.0 mg/kg orally once a day): 1.36 ± 0.31 g
- Growth of Lewis lung carcinoma (result in words) (Lewis lung carcinoma; 0.1, 1.0 and 10.0 mg/kg orally): significantly inhibited the growth of Lewis lung carcinoma
- s-GPT ([2]; 0.1 mg/kg/day orally): 382 ± 151 Karmen Unit
- s-GOT ([2]; 0.1 mg/kg/day orally, (*) p < 0.05 vs Control): 1034 ± 184
- s-GPT ([2]; 1.0 mg/kg/day orally, (*) p < 0.05 vs Control): 238 ± 87 Karmen Unit
- s-GOT ([2]; 1.0 mg/kg/day orally, (***) p < 0.001 vs Control): 563 ± 133
- s-GPT ([2]; 10.0 mg/kg/day orally, (*) p < 0.05 vs Control): 275 Karmen Unit
- s-GOT ([2]; 10.0 mg/kg/day orally, (**) p < 0.01 vs Control): 620 ± 201
- GOT and GPT values (result in words) ([2]; 0.1, 1.0 or 10.0 mg/kg/day orally): noticeably decreasing GOT and GPT values
